Experiments:
[1] = system: nasal mucus secretion; test: Range-finding study of CPS-125, Up-Down method, nasal mucus secretion as endpoint; assay type: in vivo, human
From the text: The recognition that inhibition of mucus hypersecretion might be a valuable and unique pharmacological attribute of TRPM8 agonists prompted the applicant to re-examine such compounds in his inventory. CPS-125 was described by Wei in U.S. Pat. No. 7,417,048 (August 2008), and its structure is in Table 10. This molecule incorporates a sulfamoyl group to increase water solubility and is sulfadiazine coupled to p-menthanecarboxamide. In a range-finding study, CPS-125 was suspended in 1% Ethanol/2% Polysorbate 80/saline and titrated using the Up-Down method of Dixon (Annu. Rev. Pharmacol. Toxicol. 20:441-462.1980) with nasal mucus secretion as the endpoint. The effective concentration for reducing secretions by +80% was 8 mg/ml of CPS-125. […] Such heterocyclic structures include pyrrole, furan, oxane, thiophene, thioxazole, and oxazole derivatives.
CPS-125 was active when administered as drops or in a manually activated spray. The nose is pinched and released after instilling 0.3 to 0.5 mL into the nostrils. After pinch and release, the reflex sniff or snort enhances delivery of the drops to the ostiomeatal complex. Using a power-assisted nebulizer enhances delivery of CPS-125. CPS-125's molecular weight of 416 Daltons is the highest of the tested compounds. Normally, large lipophilic molecules are not expected to penetrate secretions to reach target. Apparently, the sulfamoyl group confers the qualities of penetration, stability, and retention to make it a viable lead candidate for inhibition of mucus hypersecretion.

[2] = system: philtrum skin; test: Cooling duration bioassay on philtrum skin; assay type: in vivo, human
From the text: (§1) FIG. 1. Comparison of cooling duration of various p-menthanecarboxamide analogs on philtrum skin versus ocular margins. The philtrum skin is keratinized, but the ocular margins are not. The test substances numbered 1 to 11 are: D-Ala-OiPr, Gly-OiPr, D-Ala-OEt, D-Ala-OMe, D-Ala-GlynPr, GlynPr, D-Ala-OnBu, GlynBu, GlyOEt, L-Ala-OEt, and N-Me-D-Ala-OEt, respectively. Two outliers (1 and 2) were identified as preferred embodiments because they preferentially cool the ocular margins. The nasal cavity surfaces like the ocular margins are not keratinized.
(§2) Cooling agents have been assayed in various ways depending on intended use. For example, for the skin the test substance can be applied on philtrum skin, using descriptions of coolness on a scale of 0 to 3. For the ocular surface, the active ingredient can be applied to the closed eyelids using a wipe. In the oral cavity, drug applications are on the posterior dorsal surface of the tongue. For the oropharyngeal surface, the cooling agent may be applied as an orally disintegrating tablet. The ability of a cooling agent to antagonize a noxious stimuli may also be tested, using nociception from citric acid or chili pepper sauce. Responses are usually measured using a Visual Analog Scale with a numerical rating. For nasal responses, however, such procedures have not been standardized. Some endpoints to consider are open and comfortable breathing, the presence or absence of sniffles, and the secretion of phlegm.

[3] = molecular target: T1, hTRPM8 channel (Homo sapiens, UniProt Q7Z2W7); test: TRPM8 receptor assay, calcium entry (Fluo-8, FLIPR) in transfected CHO cells; assay type: cell-based; settings: for Potency Relative to L-menthol: ratio of TRPM8 EC50 values, menthol = 1.0
T1 construct: host or cells: CHO cells
T1 sequence (Q7Z2W7 whole entry): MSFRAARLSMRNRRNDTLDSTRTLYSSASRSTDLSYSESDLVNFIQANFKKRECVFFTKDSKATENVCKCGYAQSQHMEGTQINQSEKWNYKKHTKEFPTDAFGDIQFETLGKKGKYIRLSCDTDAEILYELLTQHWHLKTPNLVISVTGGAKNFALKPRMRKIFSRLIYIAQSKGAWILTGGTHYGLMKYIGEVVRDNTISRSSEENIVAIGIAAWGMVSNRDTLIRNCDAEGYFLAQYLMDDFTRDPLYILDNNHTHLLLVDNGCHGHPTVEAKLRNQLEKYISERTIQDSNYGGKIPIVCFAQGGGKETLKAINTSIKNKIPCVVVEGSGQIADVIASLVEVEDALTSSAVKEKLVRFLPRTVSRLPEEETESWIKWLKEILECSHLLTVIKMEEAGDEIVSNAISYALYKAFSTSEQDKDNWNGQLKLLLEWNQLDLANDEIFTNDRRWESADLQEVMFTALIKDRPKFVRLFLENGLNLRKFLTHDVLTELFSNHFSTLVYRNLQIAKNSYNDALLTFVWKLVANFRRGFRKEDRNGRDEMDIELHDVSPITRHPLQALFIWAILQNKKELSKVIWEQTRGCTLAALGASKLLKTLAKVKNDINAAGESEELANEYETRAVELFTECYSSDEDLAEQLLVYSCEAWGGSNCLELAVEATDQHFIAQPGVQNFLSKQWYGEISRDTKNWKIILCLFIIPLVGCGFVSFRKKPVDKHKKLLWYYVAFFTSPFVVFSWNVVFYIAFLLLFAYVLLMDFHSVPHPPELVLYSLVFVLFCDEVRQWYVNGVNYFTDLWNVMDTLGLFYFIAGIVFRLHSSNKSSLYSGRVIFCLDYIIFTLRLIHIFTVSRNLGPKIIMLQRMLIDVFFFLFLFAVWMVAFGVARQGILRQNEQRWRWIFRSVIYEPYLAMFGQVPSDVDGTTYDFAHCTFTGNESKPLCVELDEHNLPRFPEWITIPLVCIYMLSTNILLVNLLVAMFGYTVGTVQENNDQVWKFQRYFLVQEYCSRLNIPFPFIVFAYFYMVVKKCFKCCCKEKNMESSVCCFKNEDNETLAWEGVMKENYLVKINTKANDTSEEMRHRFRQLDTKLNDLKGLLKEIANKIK
From the text: FIG. 4. Agonist activities of TRPM8 analogs. […] The relative fluorescence (RF) unit on the ordinate represents calcium entry into transfected cells. […] The structures of these compounds are in Table 4.
The applicant has synthesized and examined a series of p-menthanecarboxamides conjugated to amino acid esters. […] This class of molecules is called N-alkylcarbonyl-amino acid esters. GlyOiPr is a p-menthanecarboxamide conjugate of glycine isopropyl (iPr) ester. It is similar in structure to WS-5, a cooling agent used as a food additive. WS-5 is the p-menthane-glycine ethyl (Et) ester, or GlyOEt. […] These in vitro effects were measured in CHO cells transfected with the hTRPM8 channel. Receptor activity was quantified using a Fluo-8 calcium kit and a Fluorescence Imaging Plate Reader ([…]™).

[4] = system: oral cavity; test: Chili-pepper sauce test (oral cavity); assay type: in vivo, human; parameters: scale not given here; settings: Table 6; grades 0, +, ++ without key
From the text: as §2

[5] = system: oropharyngeal surface; test: Bioassay on oropharyngeal surface; assay type: in vivo, human; settings: Table 7; grades 0, ++ without key
From the text: as §2

[6] = system: ocular margins; test: Cooling duration bioassay on eyelids/ocular margins; assay type: in vivo, human; settings: for Eyelids/Ocular Surface: Table 6, cooling duration, non-keratinized; for Ocular Surface: Table 7, Gly esters
From the text: as §1, §2

[7] = system: nasal cavity; test: Nebulizer screening of TRPM8 agonists for sensations in the nasal cavity; assay type: in vivo, human; settings: NasoNeb nebulizer, 3 to 5 sec per nostril
Protocol: Formulations for nebulization with NasoNeb® used a standard recipe of (Table 8): 1% of the active ingredient (1 to 10 mg/mL), 2% Tween 80 (Polysorbate 80), 1 to 5% ethanol, and made up to 100% with water. The mixture is centrifuged in a FlackTek, Inc., Speedmixer for at least 10 min at 3000 rpm. The Speedmixer spins the sample in 3 dimensions. The result is a white homogeneous liquid suspension with some of the solids now dissolved. For dosing, ˜2 to 3 mL is loaded into the canister of the nebulizer. The nebulizer nozzle tip is placed in the nostril and activated by pressing a button for 3 to 5 sec using a clock timer. […] For D-Ala-OiPr a 5-sec activation will deliver 2*0.73 mL*2 mg/ml, or a total dose of 3 mg per nose. The nasal cavity is relatively tolerant to exogenous agents with irritant properties, as many rinses are used for rhinitis and sinusitis. For some p-menthanecarboxamide analogs, a 2% (20 mg/mL) solution is possible and contemplated. An ideal agent reproduces a comfortable cooling or sensations of negative heat flux in the nasal cavity. […] Heat flux refers to the rate of heat transfer per unit area. The sinonasal cavity mucosa differs from philtrum skin and ocular margins in histology, so the choice of the right molecule must be made by experiment. The TRPM8 agonists were chosen for screening using a nebulizer for delivery. The NasoNeb system is powerful and effective for the OMC (FIG. 3). The delivery time per nostril in three to five seconds. […] These parameters were estimated in the initial trials: • Onset and offset of cooling sensations in the nasal cavity. • The intensity and quality of the cooling sensations in the nasal cavity. • Presence of effects such as sneezing or cough after dosing. • Degree of nasal stuffiness on a scale of 0 to 5. • Degree of rhinorrhea and phlegm in nasal secretions. • Questions regarding comfort and sleep at night.

[8] = system: ostiomeatal complex; test: Case studies: nebulized cooling agent in subjects with rhinitis and rhinosinusitis; assay type: in vivo, human; settings: NasoNeb delivery in subjects with rhinosinusitis
From the text: Eight subjects with rhinitis and rhinosinusitis volunteered to test cooling agents delivered with the NasoNeb® nebulizer (FIG. 3). The results were clear, robust, and evident. No statistical analysis was necessary. In a 3 to 5-day course of nebulization t.i.d., all subjects reported the ability to manage and control stuffed-up breathing in their activities. All reported comfortable sleep. The sounds of sniffling and congestion of the nose (“sniffles”), snorting, or gurgling were still present, but to a lesser degree. The subject felt it was easier to blow out liquids from the nasal cavity onto a tissue, and the volume and frequency of blowing decreased. Viscous yellow mucus was less in volume and density. The number of wipes deposited daily into a waste basket decreased by >50%. The subjects-were cheerful and enthusiastic because nasal discomfort was under control. As one subject remarked: “The stuffed-up nose problem is now history!” Severat of these cases are reported below as “Case Studies.”
The subject was given a NasoNeb® nebulizer (unavailable in China) and five individual bottles containing 15 mL of a 1% GlyOiPr solution (suspended in 2% Tween 80, 5% ethanol, and 92% water). They were shown how to load the NasoNeb canister with about 2 mL of liquid and activate the device for a 3-second dose into each nostril. The recommended dosage was three times a day, starting in the morning and at about 6-hour intervals, and for five days.
The subject agreed to using the NasoNeb nebulizer with a cooling agent. They were given a NasoNeb nebulizer and three bottles, each containing 15 ml of a 1% GlyOiPr solution (suspended in 2% Tween 80, 5% ethanol, and 92% water). They were shown how to load the NasoNeb canister with about 2 mL of liquid and activate the device for a 3-second dose into each nostril. The recommended dosage was three times a day, starting in the morning and at about 6-hour intervals, and for five days. After a 5-day trial, the subject noted a significant improvement in sleep and comfortable breathing. […] Their headaches were gone, and their appetite improved. They were advised to continue using the Nebulizer/coolant for another week and then on an as-needed basis. Their family has noticed that the subject has become less withdrawn, more engaging, and interested in their surroundings.
The subject volunteered for a trial with GlyOiPr. They were given a NasoNeb® machine and a plastic squeeze bottle containing 50 mL of GlyOiPr at 3 mg/mL suspended in 1% ethanol/2% polysorbate 80. They learned how to load the canister and activate the pump. Then, they were instructed to rinse their nose thoroughly first thing in the morning and then use the Nebulizer at 5 sec per nostril to deliver the solution. The procedure was to be repeated at 2 hours and 5 hours later to total three daily activations. The subject was interviewed after dosing for three days. They said breathing was much easier at night after the dosing, and they slept well. Nasal secretions were still present but less in volume. […] They were encouraged to use the Nebulizer as needed but not to exceed three daily doses. Three weeks after the start of the experiment, they reported that they were in complete control of their rhinitis. They would do a single dose at night before sleep and one in the morning when needed. They no longer felt congested, and the headaches were gone. The slimy phlegm in the nostrils was gone, and crusting was absent. Their nose felt clean. Their social life improved.
Their main complaint was episodes at night when they would wake up and not be able to breathe comfortably. Sleep apnea and lung disorders were ruled out, and the diagnosis was rhinosinusitis. This was confirmed by a computerized tomography scan and endoscopic examination by a qualified ENT specialist. They agreed to test the preferred embodiments GlyOnPr, GlyOiPr, D-Ala-OnPr, and D-Ala-OiPr systematically, one after the other.

[9] = molecular target: T2, TRPV1 (Homo sapiens, UniProt Q8NER1); test: TRPV1 specificity assay in transfected cells; assay type: cell-based; settings: FIG. 5; capsaicin positive control
T2 construct: expressed in transfected cells
T2 sequence (Q8NER1 whole entry, species assumed): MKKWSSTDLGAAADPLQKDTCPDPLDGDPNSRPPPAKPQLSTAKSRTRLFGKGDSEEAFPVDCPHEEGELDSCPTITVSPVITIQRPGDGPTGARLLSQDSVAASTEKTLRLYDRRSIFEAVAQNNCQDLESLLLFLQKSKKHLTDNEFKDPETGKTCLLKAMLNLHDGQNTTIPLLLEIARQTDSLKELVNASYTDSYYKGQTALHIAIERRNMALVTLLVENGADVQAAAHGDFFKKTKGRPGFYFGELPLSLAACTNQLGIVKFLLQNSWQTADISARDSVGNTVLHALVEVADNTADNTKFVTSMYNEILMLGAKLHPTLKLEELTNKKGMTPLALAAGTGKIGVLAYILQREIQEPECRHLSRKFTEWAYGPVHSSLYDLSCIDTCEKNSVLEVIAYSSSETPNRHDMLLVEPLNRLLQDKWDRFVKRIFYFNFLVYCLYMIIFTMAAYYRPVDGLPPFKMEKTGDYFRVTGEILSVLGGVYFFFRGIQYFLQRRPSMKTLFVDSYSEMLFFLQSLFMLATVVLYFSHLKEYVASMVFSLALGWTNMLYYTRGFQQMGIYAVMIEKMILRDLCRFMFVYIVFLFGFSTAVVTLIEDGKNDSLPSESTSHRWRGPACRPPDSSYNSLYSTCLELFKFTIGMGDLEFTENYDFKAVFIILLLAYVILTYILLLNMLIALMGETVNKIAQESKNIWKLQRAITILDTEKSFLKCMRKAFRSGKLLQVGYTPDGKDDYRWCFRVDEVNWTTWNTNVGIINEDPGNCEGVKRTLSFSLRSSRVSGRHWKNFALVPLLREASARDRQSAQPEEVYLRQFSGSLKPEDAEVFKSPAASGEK

[10] = Table 6, cooling duration, keratinized skin

Row | Structure (SMILES) | Activity when administered as drops or in a manually activated spray ([1]; 0.3 to 0.5 mL into the nostrils, pinch and release) | Duration of action among the 25+ compounds tested ([1]; in vivo) | Effective concentration for reducing secretions by +80% ([1]; suspended in 1% Ethanol/2% Polysorbate 80/saline, Up-Down method of Dixon) [mg/mL] | Philtrum Skin [2, 10] [min] | Philtrum Skin ([2]; Table 7, Gly esters) [min] | Potency Relative to L-menthol [3] | Chili-Pepper Sauce Test [4] | Oropharyngeal Surface [5] | Eyelids/Ocular Surface [6] [min] | Ocular Surface [6] [min] | Increase of cooling on raising the concentration ([6]; from 1 mg/ml to 2 mg/ml) [min] | Increase of cooling on raising the concentration ([6]; from 1 mg/ml to 5 mg/ml) [min] | EC50 ([3]; CHO cells transfected with hTRPM8, Fluo-8 calcium kit, FLIPR) [µM] | Sensory effects after delivery into the nasal cavity [7] | Relief of stuffiness and breathing [8] | Response of cells transfected with TRPV1 [9]
1 | CC(C)[C@@H]1CC[C@@H](C)C[C@H]1C(=O)Nc1ccc(S(=O)(=O)Nc2ncccn2)cc1 [CPS-125, (1R,2S,5R)-2-Isopropyl-5-methyl-cyclohexanecarboxylic acid [4-(pyrimidin-2-ylsulfamoyl)-phenyl]-amide] | active | longest duration of action | 8 |  |  |  |  |  |  |  |  |  |  |  |  | 
2 | CCOC(=O)CNC(=O)[C@@H]1C[C@H](C)CC[C@H]1C(C)C [GlyOEt, [((1R,2S,5R)-2-isopropyl-5-methyl-cyclohexanecarbonyl)-amino]-acetic acid ethyl ester, reference compound] |  |  |  | 24 | 24 | 10.6 | 0 | 0 | 15 | 15 | 15 | 22 |  |  |  | 
3 | CCCCOC(=O)CNC(=O)[C@@H]1C[C@H](C)CC[C@H]1C(C)C [GlyOnBu, [((1R,2S,5R)-2-isopropyl-5-methyl-cyclohexanecarbonyl)-amino]-acetic acid n-butyl ester] |  |  |  | 38 | 38 | 2.8 | 0 | 0 | 35 | 35 |  |  | 1.36 |  |  | 
4 | CCCOC(=O)CNC(=O)[C@@H]1C[C@H](C)CC[C@H]1C(C)C [GlyOnPr, [((1R,2S,5R)-2-isopropyl-5-methyl-cyclohexanecarbonyl)-amino]-acetic acid n-propyl ester] |  |  |  | 42 | 42 |  | 0 | 0 | 54 | 54 |  |  |  | About the same duration of action as GlyOiPr, but less refreshing. | provided relief | 
5 | COc1cc(CNC(=O)CCCC/C=C/C(C)C)ccc1O [capsaicin, reference compound] |  |  |  |  |  |  |  |  |  |  |  |  |  |  |  | respond

Reference: patent US20250288583A1, “Treatment of Mucus Hypersecretion” (priority 2024, published 2025)
